Data as given in patent US20210338576A1, “CANCER TREATMENT” (NOXOPHARM LIMITED, priority 2016, published 2021).

Assays:
[1] = system: late-stage cancers; settings: patients with late-stage cancers (Pant et al, 2014); cited from earlier work
[2] = intravenously administered, cyclodextrin carrier (Howes et al, 2011); cited from earlier work
[3] = Brown et al, 2008; cited from earlier work
[4] = system: primary prostate cancer; test: Cytotoxic monotherapy with idronoxil suppository in theobroma oil base in prostate cancer patients, PSA follow-up; format: in vivo, human
Description: Patient receiving chemical castration therapy presenting with undetectable testosterone and receiving Zolodex for primary prostate cancer has a PSA doubling time of 6 weeks (PSA=9.6). Patient received suppository comprising 400 mg idronoxil in theobroma oil suppository base daily for 4 weeks. […] Suppository treatment was stopped for a period of 2 weeks and then continued for 2 weeks.
Patient receiving chemical castration therapy having urinary obstruction and pelvic discomfort receiving 400 mg idronoxil suppository formulation for primary prostate cancer (PSA=19). Patient received suppository comprising 800 mg idronoxil in theobroma oil suppository based daily in 2 week courses for 15 months. The suppository formulation slowed tumour growth to a doubling time of 6 months (PSA=67 at completion of 15 month therapy).

[5] = system: primary prostate cancer; test: Oral administration of idronoxil to a prostate cancer patient, PSA follow-up; format: in vivo, human; parameters: PSA at completion of 2 week period: unit not given here
Description: Patient receiving chemical castration therapy presenting with undetectable testosterone and receiving Zolodex for primary prostate cancer (PSA=3.4). Patient received 400 mg idronoxil daily by oral administration, increasing to 800 mg daily for 2 weeks. PSA at completion of 2 week period=6.7 indicating doubling time of 1 month.

[6] = system: colo-rectal cancer cell lines (eg. HT-29, CaCo-2); settings: HT-29, CaCo-2 (Alvero et al, 2008); cited from earlier work
[7] = system: primary prostate cancer; test: Rectal idronoxil in olive oil (high oleic acid) base in a prostate cancer patient, PSA follow-up; format: in vivo, human
Description: Patient receiving chemical castration therapy presenting with undetectable testosterone and receiving Zolodex for primary prostate cancer (PSA=6.0). Patient received 400 mg idronoxil daily in olive oil base rectally for 3 weeks.

[8] = system: late-stage ovarian cancer; settings: Phase 3, late-stage ovarian cancer, 142 women recruited (Fotopoulou et al. 2014); cited from earlier work
[9] = system: wide range of cancer cell types; settings: fold more potent than genistein; cited from earlier work
[10] = 400 mg theobroma oil suppository, after stop for 2 weeks, then continued for 2 weeks
[11] = suppository 800 mg in theobroma oil base daily in 2 week courses for 15 months, PSA at start 19

Compound	clinical benefit [1]	conjugation [2]	susceptibility to Phase 1 metabolic processes [3]	PSA score [4, 10]	effect on tumour growth [4, 10]	effect on tumour growth ([4]; suppository 400 mg in theobroma oil base daily for 4 weeks)	PSA score ([4]; suppository 400 mg in theobroma oil base daily for 4 weeks, PSA at start 9.6, doubling time 6 weeks)	PSA at completion of 15 month therapy [4, 11]	tumour doubling time [4, 11] [months]	effect on tumour doubling time ([5]; oral administration)	PSA doubling time ([5]; oral, 400 mg daily increasing to 800 mg daily for 2 weeks) [month]	PSA at completion of 2 week period ([5]; oral, 400 mg daily increasing to 800 mg daily for 2 weeks, chemical castration therapy, PSA at start 3.4)	sensitivity of colo-rectal cancer cell lines [6]	tumour growth during treatment ([7]; 400 mg daily in olive oil base rectally)	PSA at completion of 2 week period ([7]; 400 mg daily in olive oil base rectally for 3 weeks, PSA at start 6.0)	clinical benefit [8]	potency as an anti-cancer agent compared to genistein [9]
Oc1ccc(C2COc3cc(O)ccc3C2c2ccc(O)cc2)cc1 (centres unmarked) [ME-143, 4,4′-(7-hydroxychroman-3,4-diyl)diphenol]	failed to show any clinical benefit	–	–	–	–	–	–	–	–	–	–	–	–	–	–	–	–
Oc1ccc(C2=Cc3ccc(O)cc3OC2)cc1 [idronoxil, 2H-1-Benzopyran-7-0,1,3-(4-hydroxyphenyl)]	–	completely conjugated	not being particularly susceptible to Phase 1 metabolic processes	10	inhibitory effect on tumour growth	effectively stopped tumour growth	10	67	6	failed to reduce tumour doubling time	1	6.7	insensitivity	continual growth of tumour during the treatment period	9.6	lack of any clinical benefit	about 10 ×
